The values that follow come from ChEMBL document CHEMBL4673307, “Pyrrolo[2,3-b]pyridine-3-one derivatives as novel fibroblast growth factor receptor 4 inhibitors for the treatment of hepatocellular carcinoma” (Bioorg Med Chem, 2021).

A word on the IC50: it is the concentration that inhibits the measured activity by half. Usually MRT last stands for the average time that molecules of a dose stay in the body. Usually Cmax stands for the peak of the concentration-time curve. One may read the Tmax as the time at which the peak concentration occurs. What is called AUC(0-t) is exposure summed from dosing to a finite time, without extrapolation to infinity. A higher AUC(0-t) goes with high exposure. A word on the half-life: it is how long it takes for the measured level to halve. The term bioavailability denotes the share of a dose that reaches the circulation, judged against a reference dose that is usually intravenous. Low readings indicate little systemic uptake, high ones much systemic uptake.

In one data set the test system is Hep 3B2. The experiment in a line: Antiproliferative activity against human Hep3B cells assessed as reduction in cell viability incubated for 72 hrs by Cell Titer-Glo assay.
Data set [1] deals with Fibroblast growth factor receptor 4 (Homo sapiens, UniProt P22455). The experiment in a line: Inhibition of human FGFR4 using poly (Glu, Tyr)4:1 as substrate incubated for 20 mins followed by [33P]-ATP addition and measured after 120 mins by radiometric hotspot assay.
Sequence of Fibroblast growth factor receptor 4 (P22455 whole entry): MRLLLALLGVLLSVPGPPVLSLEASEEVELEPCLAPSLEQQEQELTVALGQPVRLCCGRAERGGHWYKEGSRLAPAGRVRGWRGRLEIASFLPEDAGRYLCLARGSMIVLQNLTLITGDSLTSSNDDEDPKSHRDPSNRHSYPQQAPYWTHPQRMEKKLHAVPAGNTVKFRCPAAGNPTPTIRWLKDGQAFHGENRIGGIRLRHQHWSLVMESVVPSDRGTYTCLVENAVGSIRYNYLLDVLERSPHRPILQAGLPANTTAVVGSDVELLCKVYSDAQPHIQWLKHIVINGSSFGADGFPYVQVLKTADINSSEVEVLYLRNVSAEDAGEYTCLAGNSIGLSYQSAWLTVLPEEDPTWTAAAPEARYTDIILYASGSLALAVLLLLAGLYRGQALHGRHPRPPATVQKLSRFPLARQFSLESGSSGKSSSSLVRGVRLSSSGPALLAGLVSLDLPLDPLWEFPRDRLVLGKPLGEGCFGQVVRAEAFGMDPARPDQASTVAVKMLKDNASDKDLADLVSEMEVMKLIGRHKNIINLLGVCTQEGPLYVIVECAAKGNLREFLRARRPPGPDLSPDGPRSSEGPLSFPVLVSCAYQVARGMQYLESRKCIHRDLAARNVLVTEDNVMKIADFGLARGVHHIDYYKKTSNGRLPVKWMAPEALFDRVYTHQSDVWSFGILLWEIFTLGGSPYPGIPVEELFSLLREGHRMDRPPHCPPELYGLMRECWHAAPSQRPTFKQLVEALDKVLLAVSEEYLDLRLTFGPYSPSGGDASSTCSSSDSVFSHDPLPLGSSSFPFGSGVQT
Data set [2] is described as follows: MRTlast in Sprague-Dawley rat at 1 mg/kg, iv measured upto 24 hrs by LC-MS/MS analysis. The format is ADME, organism-based. The note with it: in vivo.
Data set [3] can be described thus: MRTlast in Sprague-Dawley rat at 10 mg/kg, po measured upto 24 hrs by LC-MS/MS analysis. Particulars: in vivo. The format is ADME, organism-based.
A short description of data set [4]: Cmax in Sprague-Dawley rat at 1 mg/kg, iv measured upto 24 hrs by LC-MS/MS analysis. The class given is ADME, organism-based. More on the design: route intravenous, dose 1 mg/kg, time <=24. Particulars: in vivo.
The nature of data set [5]: Tmax in Sprague-Dawley rat at 1 mg/kg, iv measured upto 24 hrs by LC-MS/MS analysis. The class given is ADME, organism-based. The note with it: in vivo.
Data set [6] is described as follows: AUClast in Sprague-Dawley rat at 10 mg/kg, po measured upto 24 hrs by LC-MS/MS analysis. More on the design: route oral, dose 10 mg/kg, time <=24. The note with it: in vivo. The class given is ADME, organism-based.
Data set [7] is described as follows: Half life in Sprague-Dawley rat at 10 mg/kg, po measured upto 24 hrs by LC-MS/MS analysis. The class given is ADME, organism-based. Particulars: in vivo.
The nature of data set [8]: AUClast in Sprague-Dawley rat at 1 mg/kg, iv measured upto 24 hrs by LC-MS/MS analysis. The format is ADME, organism-based. The arrangement: route intravenous, dose 1 mg/kg, time <=24. The note with it: in vivo.
A short description of data set [9]: Metabolic stability in human liver microsomes assessed as intrinsic clearance at 1 uM incubated for 60 mins by LC-MS/MS analysis. The format is ADME, Microsome. Particulars: read-out: CLH.
Data set [10] is described as follows: Metabolic stability in human liver microsomes assessed as half life at 1 uM incubated for 60 mins by LC-MS/MS analysis. The class given is ADME, Microsome.
A short description of data set [11]: Tmax in Sprague-Dawley rat at 10 mg/kg, po measured upto 24 hrs by LC-MS/MS analysis. The class given is ADME, organism-based. The note with it: in vivo.
The nature of data set [12]: Cmax in Sprague-Dawley rat at 10 mg/kg, po measured upto 24 hrs by LC-MS/MS analysis. The format is ADME, organism-based. More on the design: route oral, dose 10 mg/kg, time <=24. The note with it: in vivo.
The nature of data set [13]: Half life in Sprague-Dawley rat at 1 mg/kg, iv measured upto 24 hrs by LC-MS/MS analysis. The class given is ADME, organism-based. Particulars: in vivo.
Data set [14] can be described thus: Oral bioavailability in Sprague-Dawley rat at 10 mg/kg measured upto 24 hrs by LC-MS/MS analysis. The format is ADME, organism-based. Particulars: in vivo.

Take `C=CS(=O)(=O)Nc1ccccc1Nc1ccc2c(C(=O)c3cc(OC)cc(OC)c3)c[nH]c2n1`: the IC50 in the data set on Hep 3B2 came out at 1030 nM.
For the compound `C=CS(=O)(=O)N1CCN(CCCn2cc(-c3cc(OC)cc(OC)c3)c3cnc(NC)nc32)CC1`, the concentration for half-maximal inhibition (IC50) is over 10000 nM with Hep 3B2 and over 1000 nM in data set [1].
For `C=CC(=O)Nc1ccccc1Nc1ccc2c(C(=O)c3cc(OC)cc(OC)c3)c[nH]c2n1`, the MRT last at 24 h in data set [2] worked out at 46.2 min; in data set [3], 3.79 h. The figures for the Cmax in [4] and in [12] were 361 ng/mL and 33.9 ng/mL, respectively. Besides, the Tmax in [5] is 4.98 min; in data set [11] it was 1 h. Also, the AUC(0-t) at 24 h came out at 206 ng·h/mL in [6] and 277 ng·h/mL in data set [8]. Moreover, the values for the half-life in [7] and in data set [13] were 463 min and 51.6 min, respectively. Moreover, the microsomal CLint at 1 µM in [9] is 55.9 µL/min/mg. In addition, the half-life at 1 µM in data set [10] was 62 min. Besides, in data set [14], the bioavailability stood at 6.65%.
In the case of `CC#CC(=O)N1CCN(CCCn2cc(-c3cc(OC)cc(OC)c3)c3cnc(NC)nc32)CC1`, the IC50 in the data set on Hep 3B2 is over 10000 nM; in [1], over 1000 nM.
Take `C=CC(=O)NC1CCCCC1Nc1ccc2c(C(=O)c3cc(OC)cc(OC)c3)c[nH]c2n1` (centres undefined): the IC50 with Hep 3B2 turned out to be 258 nM.
Take `C=CC(=O)N1CCN(CCn2cc(-c3cc(OC)cc(OC)c3)c3cnc(NC)nc32)CC1`: the IC50 with Hep 3B2 is over 10000 nM; in [1], over 1000 nM.
`C=CC(=O)Nc1cccc(C)c1Nc1ncc2cc(-c3c(Cl)c(OC)cc(OC)c3Cl)ccc2n1`: the IC50 in the data set with Hep 3B2 was found to be 288 nM. Also, the microsomal CLint at 1 µM in data set [9] stood at 74.1 µL/min/mg. Moreover, the half-life at 1 µM in [10] worked out at 46.7 min.
In the case of `CNc1ncc2c(-c3cc(OC)cc(OC)c3)noc2n1`, the 50% inhibitory concentration (IC50) in the data set on Hep 3B2 is over 10000 nM; in data set [1], over 1000 nM.
`C=CC(=O)Nc1cccc(C)c1Nc1ccc2c(C(=O)c3cc(OC)cc(OC)c3)c[nH]c2n1`: the IC50 in the data set on Hep 3B2 is 438 nM.
Still for that read-out and setting: in the case of `CC#CC(=O)Nc1ccccc1Nc1ccc2c(C(=O)c3cc(OC)cc(OC)c3)c[nH]c2n1` it was 602 nM; in that of `C=CC(=O)Nc1ccccc1Nc1ncc2c(-c3cc(OC)cc(OC)c3)n[nH]c2n1`, 4090 nM.
Regarding `C=CC(=O)N1CCN(CCn2cc(-c3ccc(OC)c(OC)c3)c3cnc(NC)nc32)CC1`, the figures for the IC50 (with Hep 3B2; in data set [1]) were over 10000 nM and over 1000 nM, respectively.
For `C=CC(=O)N1CCN(CCn2nc(-c3cc(OC)cc(OC)c3)c3cnc(NC)nc32)CC1`, in that order: over 10000 nM and over 1000 nM.
Turning to `C=CC(=O)N1CCN(CCCn2cc(-c3cc(OC)cc(OC)c3)c3ccc(NC)nc32)CC1`, in the data set with Hep 3B2, the IC50 is over 10000 nM.
